{
  "source": "patent US6200962A",
  "about": "“Thionophosphate derivatives, process for their preparation and pharmaceutical compositions containing them” (priority 1994, dated 2001)",
  "key": {"[1]": {"test_system": "Human neutrophils (PMNs)", "assay": "Chemiluminescence of PMNs activated by cationized streptococci", "format": "cell-based", "description": "Human neutrophils (PMNs) were isolated from freshly drawn human blood according to already published procedures [Ginsburg et al., ibid.].\nChemiluminescence was measured in activated PMNs at 37° C. in a LUMAC/3M BIOCONTER M2010 connected to a linear recorder. PMNs (3*10^5 -2*10^6 /ml) were pipetted into plastic cuvettes, containing 1 ml HBSS, luminol (5*10^-5 M) and washed Streptococci 20 μl/ml (ten milliliters of a saline-washed suspension of group A Streptococci type 3 strain C203S of an optical density of 5.0 at 550 nm that was treated for 15 min at 37° C. with 100 μg/ml of poly L-histidine (PHSTD)HCL mol wt 23,000). The cationized suspension was then washed in normal saline and resuspended to the original volume. The cuvettes were mixed over a mechanical vortex and the chemiluminescence was immediately monitored until the peak CL was reached.\nModulation of chemiluminescence response was achieved by employing AMTP (compound B) molecules in various concentrations.\nTwo experiments were done. In the first experiment with 3-4*10^5 cells/ml, a concentration of less than 1 mM of compound B was required to quench 90% of light production. Control 1 in FIG. 13 represents neutrophils treated with streptococcus alone (14,000-17,000 light units at the peak), Spontaneous light production measurements were 1,400-2,000 light CPM. In the second experiment Control 2 represents 1.5*10^6 cells per 1 ml HBSS activation of the cells by cationized streptococcus produced between 50,000-63,000 light units at the peak. 8 mM of compound B reduced the light measurements to the base level of 3500 light units."}, "[2]": {"assay": "Superoxide radical assay (xanthine/xanthine oxidase, cyt C reduction)", "description": "Superoxide radicals were produced from reactions of xanthine/xanthine oxidase [Mccord, J. M. and Fridovich I. (1969) J. Biol. Chem. 244:6049-6055]. The enzyme unit was adjusted to produce a linear flux of superoxide radicals which gave a slope of 0.12 OD/min at 550 nm. by reduction of cyt-C.\nSuperoxide radicals were produced by the xanthine/xanthine oxidase system, and the prevention of cyt C reduction by compound B was measured (FIG. 8). […] The spontaneous second order reaction rate constant of superoxide with compound B was calculated from the initial slope to be 8.1*10^2 M^-1 S^-1."}, "[3]": {"assay": "oil(mineral)/water and octanol/water partitioning", "format": "physicochemical", "source_text": "The basic chemical structure of the compounds of the invention includes the group --P--N=S, which resembles the thiourea --N--C=S core, in which the central carbon atom has been replaced by a phosphorus atom, to give --N--P=S, which is the characteristic functional group the novel compounds of the invention. This functional group is based on a primary amido thionophosphate (AMTP) chemical bond. The specific compounds shown in FIG. 1, which are only representative of the numerous possible compounds, differ in their oil(mineral) /water and octanol/water partitioning: […]"}, "[4]": {"assay": "Scavenging of sodium hypochlorite followed by 31P NMR", "conditions": "5 mM in water, 6 mM NaOCl, immediately after exposure", "description": "(§1) ROS reaction with AMTP were recorded by ^31 P NMR spectra. ^31 P spectra were referenced to 1% H3 PO4 in D2 O and used as an external standard.\nCompound B (5 mM in water) was introduced into 6 mM sodium hypochlorite."}, "[5]": {"assay": "Reaction with hydrogen peroxide followed by 31P NMR", "description": "as §1\nTwo products of oxidation were observed by ^31 P NMR (FIG. 4). One product at 9.106 ppm and the other at -3.556 ppm. The second product indicated another fragmentation in the molecule.\nDifferent reaction rates were recorded by NMR kinetics between hydrogen peroxide and compound B either in a more hydrophilic environment and in a more hydrophobic one (different mixtures of 1,4-dioxane and water) with dielectric constants of 72.63 and 9.58 respectively."}},
  "data": [
    {"smiles": "CCOP(=S)(NCCO)OCC", "note": "[Compound B, 2-hydroxyamido diethyithionophosphate]", "values": [
      {"measurement": "light production at 8 mM", "setting": "[1]; 8 mM, 1.5*10^6 cells/ml, control 50,000-63,000", "result": 3500, "unit": "light units"},
      {"measurement": "IC90", "setting": "[1]; Homo sapiens, Neutrophil, 3-4*10^5 cells/ml, read-out: concentration required to quench 90% of light production", "result": "< 1", "unit": "mM"},
      {"measurement": "reduction of light emission", "setting": "[1]; various concentrations", "result": "dose dependent reduction of light emission"},
      {"measurement": "reduction of cyt C by compound itself", "setting": "[2]", "result": "did not reduce cyt C"},
      {"measurement": "second order reaction rate constant with superoxide", "setting": "[2]; calculated from the initial slope", "result": "8.1*10^2 M^-1 S^-1"},
      {"measurement": "logP", "setting": "[3]; octanol/water, read-out: P (octanol/water) (converted)", "result": 0.508},
      {"measurement": "P (oil/water)", "setting": "[3]; oil(mineral)/water", "result": 0.25},
      {"measurement": "oxidation by sodium hypochlorite", "setting": "[4]", "result": "complete oxidation of the sulfur group"},
      {"measurement": "decomposition by H2O2", "setting": "[5]; 5 mM compound, 100 mM H2O2", "result": "decomposed by H2 O2"},
      {"measurement": "reaction rate with hydrogen peroxide vs dielectric constant", "setting": "[5]; 1,4-dioxane/water mixtures, dielectric constants 72.63 and 9.58", "result": "much faster in high dielectric constants"}
    ]}
  ]
}
